Source: PMC9241925, “DWV 3C Protease Uncovers the Diverse Catalytic Triad in Insect RNA Viruses” (Microbiology Spectrum, 2022)
Like-named read-outs stand apart in the source and are kept apart here. Primed or numbered codes have the meaning given here. *: point of attachment. Dabcyl′ = CN(C)c1ccc(/N=N/c2ccc(C(=O)*)cc2)cc1; EDANS = O=S(=O)(O)c1cccc2c(NCCN*)cccc12

What was measured:
[1] = tested on: main protease of SARS-CoV-2; conditions: by covalently modifying cysteine in the catalytic diad; cited from earlier work
[2] = molecular target: T1, DWV 3C protease (GST-DWV 3C^pro) (Deformed wing virus, UniProt Q8B3M2); assay: FRET protease assay of GST-DWV 3C^pro with fluorogenic peptide substrate; type: biochemical; conditions: for Dependence of DWV 3C^pro inhibition on dithiothreitol: absence vs presence of 2 mM DTT; for IC50: pH 6.0, 33°C, n = 3, read-out: IC50 of DWV 3C^pro inhibitors
T1 construct: cDNA corresponding to amino acid 2094–2353 of DWV polyprotein; made in house; host or cells: E. coli BL21
T1 sequence (Q8B3M2 2094-2353): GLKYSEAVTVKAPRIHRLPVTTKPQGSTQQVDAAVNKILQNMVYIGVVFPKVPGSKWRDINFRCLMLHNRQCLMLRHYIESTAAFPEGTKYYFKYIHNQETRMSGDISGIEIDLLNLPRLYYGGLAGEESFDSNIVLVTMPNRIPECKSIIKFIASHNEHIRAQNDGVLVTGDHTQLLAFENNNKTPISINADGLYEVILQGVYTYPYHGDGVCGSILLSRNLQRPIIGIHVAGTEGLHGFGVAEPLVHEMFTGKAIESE
Method: Dabcyl-PVQAKPEMDNPNPGE-Edans derived from the cleavage site between L-protein and VP2 (underlined, 205-218 of polyprotein) was used as a peptide substrate to measure the protease activity. E was added to the C-terminus to link Edans. FRET experiments were performed with Varioskan LUX multimode microplate reader (Thermo Fisher). We measured 100 μL of reaction mixture with 50 mM Citrate buffer, pH 6.0, 150 mM NaCl, 2 mM EDTA, 2 mM DTT containing 1 μM GST-DWV 3C^pro and 20 μM fluorogenic peptide substrate in a 96-well flat-bottom white microplate at 33°C. The relative fluorescence was measured using an excitation wavelength of 336 nm and by monitoring the emission at 490 nm every 3 min for 30 min. In order to determine the optimal reaction condition for GST-DWV 3C^pro, various pH values, temperatures, and DTT concentrations were used. To test the effect of DTT on the activity, the protein dialyzed against TNE buffer was used. To determine the velocity of product formation, we precalibrated the instrument with the free Edans standard in the presence of 20 μM Dabcyl to calculate the relationship between relative fluorescence and substrate concentration. We calculated the kinetic parameters, Km, Vmax, and catalytic efficiency (Kcat/Km) assuming Michaelis-Menten kinetics for the cleavage of peptide.
To identify the inhibitors for DWV 3C^pro, various concentrations of the tested compounds were added. To determine the inhibitory effects of the various compounds, we preincubated the compound and enzyme on ice for 10 min prior to addition of the peptide substrate. To analyze the effects of ebselen, disulfiram, and carmofur, we used the enzyme dialyzed against TNE buffer and carried out the reaction with or without DTT. We determined the initial velocities of the enzymatic reactions and fitted to a sigmoidal dose-response equation with nonlinear regression analysis using GraphPad Prism 9. The data from three independent assays were used to determine IC50 value of each compound.

human rhinovirus 3C^pro = tested on: human rhinovirus 3C^pro; set-up: method as in PMID 21813612, PMID 27645381, PMID 10197965; conditions: cited from earlier work
DWV [3] = tested on: DWV; set-up: method as in PMID 33643262; conditions: based on the synthesis of RdRP, cited from earlier work
enterovirus 3C^pro = tested on: enterovirus 3C^pro; set-up: method as in PMID 21813612, PMID 27645381, PMID 10197965; conditions: cited from earlier work
[4] = tested on: honey bee pupal head cells; assay: Cell viability of honey bee pupal head cells (CellTiter-Lumi, intracellular ATP); type: cell-based, honey bee (Apis mellifera)
Method: Honey bee pupal head cells were prepared as described above and 100 μL cell suspension (2 × 10^6/mL) was inoculated to each well in 96-well plate. The cells were cultured in the presence of either DMSO or ebselen at the indicated concentrations at 33°C for 16 h. The cultured plate was first incubated at room temperature for 10 min followed by adding 100 μL of reagent solution (CellTiter-Lumi Luminescent Cell Viability assay kit, Beyotime). The plate was shaken at room temperature for 2 min to promote cell lysis, and then further incubated for 10 min to stabilize the chemiluminescence signal. The signal was detected using Varioskan LUX multimode microplate reader and depends on intracellular ATP level, thus the relative viability of cells.

DWV [5] = assay: DWV replication (RdRP precursor synthesis, Western blot) in DWV-infected honey bee pupal head cells; type: cell-based, Deformed wing virus (DWV)
Method: Honey bee pupae with pale/pink eyes were collected from a mite-free colony. They were surface sterilized by washing with 10% bleach followed by sterile PBS three times (5 min for each wash). Heads from the pupae were dissected and homogenized seven times with 1 mL Grace culture medium using Dounce homogenizer (Loose fitting). The homogenate was then filtered through a cell strainer (Falcon) and the number of cells was counted. 10^6 cells were suspended in 100 μL of Grace medium containing 10% FBS, antibiotics (penicillin and streptomycin), and ebselen at the indicated concentration with or without DWV (MOI: 10) in 24-well plate at 33°C for 1 h. DWV used for this study was one of type A strains (VD-B7) we previously isolated from Varroa mite-infested pupa ([8]). […]
After DWV infection, the pupal head cells were collected by centrifugation, and then homogenized with 150 μL of RIPA buffer (20 mM Tris-HCl, pH 7.5, 150 mM NaCl, 1% NP-40, 0.5% sodium deoxycholate, 0.1% SDS) containing protease inhibitor cocktail. After centrifugation of the homogenate, the protein concentration of supernatant was measured using Enhanced BCA protein assay kit. The cell lysate with 20 μg of protein was analyzed by Western blot for each sample. […] Band intensity of 97 kDa RdRP precursor was measured by image-J.

[6] = compounds tested with or without 2 mM DTT and only effective without DTT
[7] = peptide substrate 2-20 μM, Michaelis-Menten
[8] = tested in the presence of 2 mM DTT, 1 μM enzyme, 20 μM peptide substrate

| Compound | Inhibition of the main protease of SARS-CoV-2 [1] | Dependence of DWV 3C^pro inhibition on dithiothreitol [2] | IC50 [2, 6] | IC50 [2, 8] | also measured |
| --- | --- | --- | --- | --- | --- |
| CCCCCCNC(=O)n1cc(F)c(=O)[nH]c1=O [Carmofur] | inhibit the main protease of SARS-CoV-2 | only effective without dithiothreitol | 127 ± 6.2 µM | – | – |
| PVQAKPEMDNPNPGE ({Dabcyl′}-PVQAKPEMDNPNPGE-{EDANS}) [Dabcyl-PVQAKPEMDNPNPGE-Edans, 15 amino acid fluorogenic FRET peptide substrate with the DWV L-protein/VP2 cleavage site] | – | – | – | – | Km [2, 7]: 4.23 ± 0.256 µM; Vmax [2, 7]: 0.2538 ± 0.0067 µM/min |
| CCOC(=O)/C=C/[C@H](C[C@@H]1CCNC1=O)NC(=O)[C@@H](CC(=O)[C@@H](NC(=O)c1cc(C)on1)C(C)C)Cc1ccc(F)cc1 [Rupintrivir] | – | – | – | 0.36 ± 0.03 µM | IC50 (human rhinovirus 3C^pro): 0.005 µM; DWV replication in honey bee pupal cells (DWV [3]): inhibited DWV replication; DWV replication in honey bee pupal cells (DWV [3]; listed as rupintrivir): suppresses DWV replication; IC50 (enterovirus 3C^pro): 1.65 to 7.3 µM |
| CCN(CC)C(=S)SSC(=S)N(CC)CC [Disulfiram] | inhibit the main protease of SARS-CoV-2 | only effective without dithiothreitol | 35.6 ± 0.8 µM | – | – |
| O=C1C(Cl)=C(Cl)C(=O)c2ncccc21 [6,7-dichloroquinoline-5,8-dione] | – | – | – | 129 ± 1.8 µM | – |
| [Zn] [Zinc, zinc] | – | – | – | 15200 ± 422 µM | – |
| O=c1c(O)c(-c2ccc(O)c(O)c2)oc2cc(O)cc(O)c12 [Quercetin] | – | – | – | 430 ± 62.8 µM | DWV replication in honey bee pupal cells (DWV [3]): inhibited DWV replication |
| CC(C)C[C@H](NC(=O)OCc1ccccc1)C(=O)N[C@@H](CC1CCNC1=O)C(O)S(=O)(=O)O (some centres unmarked) [GC376] | – | – | – | 55.2 ± 4 µM | – |
| O=c1c2ccccc2[se]n1-c1ccccc1 [Ebselen] | inhibit the main protease of SARS-CoV-2 | only effective without dithiothreitol | 1.66 ± 0.02 µM | – | Toxicity to honey bee cells [4]: toxic to the cells; Cell viability (luminescence) vs DMSO ([4]; 30 μM, 16 h, 33°C): no significant difference; Cell viability ([4]; 100 and 250 μM, 16 h, 33°C, vs DMSO): cell viability was reduced; Synthesis of the 97 kDa precursor of RdRP and 3C^pro (DWV [5]; DWV-infected pupal head cells, MOI 10, 33°C, 16 h, increasing ebselen concentrations vs DMSO): decreased the synthesis of the 97 kDa precursor of RdRP and 3C^pro in a concentration-dependent manner; DWV replication in honey bee cells (DWV [5]; cultured honey bee cells): inhibited DWV replication |
